Source: US12473284B2, “Small molecule inhibitors of ULK1” (Memorial Sloan Kettering Cancer Center, priority 2019, dated 2025)

Molecular target: protein kinase CDK7 (Homo sapiens (Human), UniProt P50613)
Assay: Inhibition of protein kinase CDK7
Assay type: biochemical
Details: not given

protein kinase CDK7, sequence (P50613 whole entry): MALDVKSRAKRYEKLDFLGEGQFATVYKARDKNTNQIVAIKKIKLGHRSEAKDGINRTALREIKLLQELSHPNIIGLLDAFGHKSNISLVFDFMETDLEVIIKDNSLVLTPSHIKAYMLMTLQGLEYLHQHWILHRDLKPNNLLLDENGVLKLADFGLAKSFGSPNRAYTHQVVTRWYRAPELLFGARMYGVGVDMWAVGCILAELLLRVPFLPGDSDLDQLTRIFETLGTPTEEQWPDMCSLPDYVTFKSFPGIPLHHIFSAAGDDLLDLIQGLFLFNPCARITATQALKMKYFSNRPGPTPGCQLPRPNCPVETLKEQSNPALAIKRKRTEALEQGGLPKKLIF
protein kinase CDK7, sequence (P51946 whole entry partner): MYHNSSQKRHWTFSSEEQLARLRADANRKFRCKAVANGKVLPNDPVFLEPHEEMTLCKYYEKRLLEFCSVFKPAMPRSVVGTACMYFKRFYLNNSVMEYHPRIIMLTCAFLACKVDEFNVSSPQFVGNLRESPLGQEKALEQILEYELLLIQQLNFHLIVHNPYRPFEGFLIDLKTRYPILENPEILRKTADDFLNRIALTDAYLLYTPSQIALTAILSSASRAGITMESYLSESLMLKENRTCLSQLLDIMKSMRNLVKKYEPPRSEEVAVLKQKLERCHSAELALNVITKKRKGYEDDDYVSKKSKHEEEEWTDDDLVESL
protein kinase CDK7, sequence (P51948 whole entry partner): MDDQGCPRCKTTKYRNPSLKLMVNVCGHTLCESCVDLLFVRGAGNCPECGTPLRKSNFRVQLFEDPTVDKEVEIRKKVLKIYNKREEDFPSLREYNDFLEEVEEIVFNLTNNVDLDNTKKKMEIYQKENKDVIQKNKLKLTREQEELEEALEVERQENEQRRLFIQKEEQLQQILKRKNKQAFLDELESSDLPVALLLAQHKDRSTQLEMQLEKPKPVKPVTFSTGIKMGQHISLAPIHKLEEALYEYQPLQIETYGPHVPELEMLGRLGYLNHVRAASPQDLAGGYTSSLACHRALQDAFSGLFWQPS

How did the “inhibition of protein kinase CDK7 (potency)” value (shortened to “inhibition”) turn out when `CC(N)C1CCC(C(=O)Nc2ccnc3[nH]c(-c4ccsc4)cc23)CC1` (stereo not shown) [MSK-A176] was run?
The value was “low nM potency”.

`CC(N)C1CCC(C(=O)Cc2ccnc3[nH]c(-c4ccc(F)cc4)cc23)CC1` (stereo not shown) [MSK-A184] was tested. Which “inhibition” value did it give?
Its value is “low nM potency”.

With `CC(N)C1CCC(C(=O)Cc2ccnc3[nH]c(-c4ccc(C#N)cc4)cc23)CC1` (stereo not shown) [MSK-A189] as the compound, how does the “inhibition” value read?
The value was “low nM potency”.

With `CC(N)C1CCC(C(=O)Cc2ccnc3[nH]c(-c4cccc(F)c4)cc23)CC1` (stereo not shown) [MSK-A191] as the compound, how does the “inhibition” value read?
The value was “low nM potency”.

Test system: MiaCaPa-2 cancer cells
Assay: MiaCaPa-2 pancreatic ductal adenocarcinoma (PDAC) cell line xenograft mice model
Assay type: in vivo
Details: MSK-A170-PEAK2 10 mg/kg + trametinib 0.5 mg/kg, i.p., 6 days a week, 17 days, female athymic nude mice
Description: FIG. 1 illustrates the final tumor weights for four groups on mice in a MiaCaPa-2 cell line xenograft mouse model, where “Control” group mice were treated 6 days a week, i.p., for 17 days with dosing vehicle; “ULK1i” group mice were treated 6 days a week, i.p., for 17 days with a compound of the present technology, 10 mg/kg; “MEKi” group mice were treated 6 days a week, i.p., for 17 days with MEK1 inhibitor trametinib, 0.5 mg/kg; “ULK1i+MEKi” group mice were treated 6 days a week, i.p., for 17 days with a combination of the compound of the present technology (10 mg/kg) and trametinib (0.5 mg/kg), according to the working examples.
FIG. 2 provides the tumor volume over time for each group of the xenograft mouse model study that provided the data of FIG. 1, according to the working examples.
Female athymic nude (Foxn1^nu) mice were implanted with 2×10^6 MiaCaPa-2 cancer cells per animal subcutaneously at the right flank. […] The tumor volume was measured on 1, 3, 5, 7, 9, 11, 13, 15, and 17. […]

With `C[C@@H](N)C1CCC(C(=O)Nc2ccnc3[nH]c(-c4ccccc4)cc23)CC1` (single isomer, unassigned) [MSK-A170-PEAK2] as the compound, how does the “tumor weight / tumor volume, combination with trametinib versus trametinib alone” value read?
Its value is “significantly improved results”.

Molecular target: ULK1/Atg13 kinase complex (Homo sapiens (Human), UniProt O75385)
Sequence (O75385 whole entry): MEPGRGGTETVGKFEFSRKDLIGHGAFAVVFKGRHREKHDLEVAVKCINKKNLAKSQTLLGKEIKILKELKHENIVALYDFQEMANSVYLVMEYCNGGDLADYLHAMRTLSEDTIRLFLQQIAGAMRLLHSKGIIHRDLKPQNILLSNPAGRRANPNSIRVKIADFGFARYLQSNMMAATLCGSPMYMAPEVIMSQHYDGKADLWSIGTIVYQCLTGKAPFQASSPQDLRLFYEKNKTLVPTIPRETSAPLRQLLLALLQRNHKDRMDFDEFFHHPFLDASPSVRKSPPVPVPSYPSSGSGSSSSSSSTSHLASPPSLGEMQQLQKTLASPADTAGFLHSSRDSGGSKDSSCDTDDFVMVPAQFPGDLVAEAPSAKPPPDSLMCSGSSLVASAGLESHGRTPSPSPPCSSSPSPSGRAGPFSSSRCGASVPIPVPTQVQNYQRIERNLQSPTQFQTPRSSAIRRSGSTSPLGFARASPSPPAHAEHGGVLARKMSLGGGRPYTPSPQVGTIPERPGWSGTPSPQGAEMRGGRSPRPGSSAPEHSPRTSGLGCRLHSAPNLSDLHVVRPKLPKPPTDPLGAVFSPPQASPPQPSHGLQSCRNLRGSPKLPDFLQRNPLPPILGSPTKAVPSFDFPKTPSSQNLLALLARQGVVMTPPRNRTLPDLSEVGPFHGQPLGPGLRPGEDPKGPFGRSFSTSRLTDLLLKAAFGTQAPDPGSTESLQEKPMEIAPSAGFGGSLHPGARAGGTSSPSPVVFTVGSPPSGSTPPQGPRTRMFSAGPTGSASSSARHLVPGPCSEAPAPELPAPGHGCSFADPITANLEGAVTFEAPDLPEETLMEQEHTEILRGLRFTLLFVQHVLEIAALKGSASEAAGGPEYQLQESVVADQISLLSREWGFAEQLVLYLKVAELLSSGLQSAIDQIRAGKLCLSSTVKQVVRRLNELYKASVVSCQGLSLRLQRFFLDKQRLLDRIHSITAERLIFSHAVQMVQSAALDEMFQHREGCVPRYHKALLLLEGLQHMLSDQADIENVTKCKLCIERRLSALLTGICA
Sequence (O75143 whole entry partner): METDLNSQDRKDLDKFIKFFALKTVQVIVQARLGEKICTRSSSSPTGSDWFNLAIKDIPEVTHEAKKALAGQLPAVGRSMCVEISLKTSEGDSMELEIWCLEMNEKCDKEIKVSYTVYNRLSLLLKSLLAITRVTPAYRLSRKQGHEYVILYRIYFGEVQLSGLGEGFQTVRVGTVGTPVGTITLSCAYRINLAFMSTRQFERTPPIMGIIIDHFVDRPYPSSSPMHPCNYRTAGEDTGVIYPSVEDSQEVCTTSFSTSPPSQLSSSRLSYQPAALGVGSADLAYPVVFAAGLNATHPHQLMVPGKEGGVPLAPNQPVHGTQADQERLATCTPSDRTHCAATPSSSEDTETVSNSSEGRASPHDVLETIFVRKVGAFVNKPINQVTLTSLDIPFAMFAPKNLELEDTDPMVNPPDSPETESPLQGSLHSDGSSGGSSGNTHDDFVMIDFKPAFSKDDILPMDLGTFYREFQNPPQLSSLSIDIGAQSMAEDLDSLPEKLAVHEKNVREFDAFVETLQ
Assay: In vitro kinase assay (Kinase-Glo Plus luminescence, MBP 1-20 peptide substrate)
Assay type: biochemical
Details: recombinant His-tagged ULK1/Atg13, 75 min at room temperature; salt form as in Table 1
Description: In vitro kinase assays were performed as described below:
Recombinant His-tagged ULK1/Atg13 kinase complex was expressed in […] insect cells, and affinity-purified by Ni-NTA beads, aliquoted and stored at −80° C.
Compounds were dissolved in DMSO to make 10 mM stock solution, aliquoted and stored at −80° C.
1× kinase buffer was prepared: 20 mM Tris-HCl, pH7.5, 100 mM NaCl, 5 mM MgCl2, 0.5 mg/ml BSA, 5 mM DTT, 0.1% Tween-20.
For compound screening experiment, 1 μl of the 10 mM compound stock solution was added using P2.5 pipette into 99 μl 1×kinase buffer to make 100 μM working solution.
For compound titration experiment, 100 μM compound solution was further diluted (with 1×kinase buffer containing 1% DMSO) in a series manner.
30 mM MBP (Myelin basic protein) 1-20 peptide (sequence: […]; SEQ ID NO: 1) was prepared in 1× kinase buffer.
500 μM ATP was prepared in 1× kinase buffer.
Pre-incubation reactions were set up as shown in the Table below and pre-incubated for 10 min at room temperature.
4 μl of 500 μM ATP was added to the pre-incubation reaction (thus the final reaction volume is 20 μl) and incubated for 75 min at room temperature.
20 μl Kinase-Glo Plus (Promega) was added to the reaction (warmed to RT), mixed well and incubated at room temperature for 15 min.
20 μl reaction was pipetted into each well of a white 384-well plate.
the 384-well plate was subjected to brief centrifugation, and luminescence was read in a plate reader.
Calculated inhibition (%) was calculated as follows: […]

Which IC50 does the source give for `CC(N)C1CCC(C(=O)Nc2ccnc3[nH]c(-c4ccsc4)cc23)CC1` (single isomer, unassigned) [MSK-A176-peak 1, (1r,4r)-4-(1-aminoethyl)-N-(2-(thiophen-3-yl)-1H-pyrrolo[2,3-b]pyridin-4-yl)cyclohexanecarboxamide] here?
Its IC50 is 56.2 nM.

`CC(N)C1CCC(C(=O)Nc2ccnc3[nH]c(-c4ccsc4)cc23)CC1` (single isomer, unassigned) [MSK-A176-peak 2, (1r,4r)-4-(1-aminoethyl)-N-(2-(thiophen-3-yl)-1H-pyrrolo[2,3-b]pyridin-4-yl)cyclohexanecarboxamide] was tested. Which IC50 did it give?
The IC50 was 23.6 nM.

For `CC(N)C1CCC(C(=O)Nc2ccnc3[nH]c(-c4ccc(F)cc4)cc23)CC1` (single isomer, unassigned) [MSK-A184_peak 1, (1r,4r)-4-(1-aminoethyl)-N-(2-(4-fluorophenyl)-1H-pyrrolo[2,3-b]pyridin-4-yl)cyclohexanecarboxamide], which IC50 is on record?
Its IC50 is 15.5 nM.

How did the IC50 turn out when `CC(N)C1CCC(C(=O)Nc2ccnc3[nH]c(-c4ccc(F)cc4)cc23)CC1` (single isomer, unassigned) [MSK-A184_peak 2, (1r,4r)-4-(1-aminoethyl)-N-(2-(4-fluorophenyl)-1H-pyrrolo[2,3-b]pyridin-4-yl)cyclohexanecarboxamide] was run?
The IC50 was 38.9 nM.

For `CC(N)C1CCC(C(=O)Nc2ccnc3[nH]c(-c4cccc(F)c4)cc23)CC1` (single isomer, unassigned) [MSK-A191_peak 1, (1r,4r)-4-(1-aminoethyl)-N-(2-(3-fluorophenyl)-1H-pyrrolo[2,3-b]pyridin-4-yl)cyclohexanecarboxamide], which IC50 is on record?
The IC50 was 40.8 nM.

For `CC(N)C1CCC(C(=O)Nc2ccnc3[nH]c(-c4cccc(F)c4)cc23)CC1` (single isomer, unassigned) [MSK-A191_peak 2, (1r,4r)-4-(1-aminoethyl)-N-(2-(3-fluorophenyl)-1H-pyrrolo[2,3-b]pyridin-4-yl)cyclohexanecarboxamide], which IC50 is on record?
Its IC50 is 59.1 nM.

For `C[C@@H](N)C1CCC(C(=O)Nc2ccnc3occc23)CC1` (stereo partly shown) [MSK-A091, (1r,4r)-4-(1-aminoethyl)-N-(furo[2,3-b]pyridin-4-yl)cyclohexanecarboxamide], which IC50 is on record?
Its IC50 is 2200 nM.

With `CC(N)C1CCC(C(=O)Nc2ccnc3[nH]c(-c4ncc[nH]4)cc23)CC1` (stereo not shown) [MSK-A157, (1r,4r)-N-(2-(1H-imidazol-2-yl)-1H-pyrrolo[2,3-b]pyridin-4-yl)-4-(1-aminoethyl)cyclohexanecarboxamide] as the compound, how does the IC50 read?
The IC50 was 73 nM.

`C[C@@H](N)C1CCC(C(=O)Nc2ccnc3[nH]c(-c4ccccc4)cc23)CC1` (stereo partly shown) [MSK-A170, (1r,4r)-4-(1-aminoethyl)-N-(2-phenyl-1H-pyrrolo[2,3-b]pyridin-4-yl)cyclohexanecarboxamide] was tested. Which IC50 did it give?
The IC50 was 18 nM.

Which IC50 does the source give for `CC(N)C1CCC(C(=O)Nc2ccnc3[nH]c(-c4nccn4C)cc23)CC1` (stereo not shown) [MSK-A171, (1r,4r)-4-(1-aminoethyl)-N-(2-(1-methyl-1H-imidazol-2-yl)-1H-pyrrolo[2,3-b]pyridin-4-yl)cyclohexanecarboxamide] here?
Its IC50 is 1450 nM.

With `C[C@@H](N)C1CCC(C(=O)Nc2ccnc3[nH]c(-c4ccccn4)cc23)CC1` (stereo partly shown) [MSK-A172, (1r,4r)-4-(1-aminoethyl)-N-(2-(pyridin-2-yl)-1H-pyrrolo [2,3-b]pyridin-4-yl)cyclohexanecarboxamide] as the compound, how does the IC50 read?
The IC50 was 110 nM.

For `CC(N)C1CCC(C(=O)Nc2ccnc3[nH]c(-n4cccn4)cc23)CC1` (stereo not shown) [MSK-A173, (1r,4r)-N-(2-(1H-pyrazol-1-yl)-1H-pyrrolo[2,3-b]pyridin-4-yl)-4-(1-aminoethyl)cyclohexanecarboxamide], which IC50 is on record?
Its IC50 is 630 nM.

With `CC(N)C1CCC(C(=O)Nc2ccnc3[nH]c(-c4ccsc4)cc23)CC1` (stereo not shown) [MSK-A176] as the compound, how does the IC50 read?
Its IC50 is 5 nM.

With `CC(N)C1CCC(C(=O)Nc2ccnc3[nH]c(-c4cccs4)cc23)CC1` (stereo not shown) [MSK-A177] as the compound, how does the IC50 read?
The IC50 was 54 nM.

`CC(N)C1CCC(C(=O)Nc2ccnc3[nH]c(-c4nccs4)cc23)CC1` (stereo not shown) [MSK-A178] was tested. Which IC50 did it give?
The IC50 was 47 nM.

`CC(N)C1CCC(C(=O)Nc2ccnc3[nH]c(-c4ncccn4)cc23)CC1` (stereo not shown) [MSK-A180] was tested. Which IC50 did it give?
The IC50 was 2380 nM.

For `CC(N)C1CCC(C(=O)Nc2ccnc3[nH]c(-n4ccnc4)cc23)CC1` (stereo not shown) [MSK-A181, (1r,4r)-N-(2-(1H-imidazol-1-yl)-1H-pyrrolo[2,3-b]pyridin-4-yl)-4-(1-aminoethyl)cyclohexanecarboxamide], which IC50 is on record?
The IC50 was 515 nM.

With `COC(=O)[C@@H](N)[C@H]1CC[C@H](C(=O)Nc2ccnc3[nH]c(-c4ccccc4)cc23)CC1` [MSK-A182, (S)-methyl 2-amino-2-((1r,4S)-4-((2-phenyl-1H-pyrrolo[2,3-b]pyridin-4-yl)carbamoyl)cyclo-hexyl)acetate] as the compound, how does the IC50 read?
The IC50 was 22.9 nM.

Which IC50 does the source give for `COC(=O)[C@H](N)[C@H]1CC[C@H](C(=O)Nc2ccnc3[nH]c(-c4ccccc4)cc23)CC1` [MSK-A183, (R)-methyl 2-amino-2-((1r,4R)-4-((2-phenyl-1H-pyrrolo[2,3-b]pyridin-4-yl)carbamoyl)cyclo-hexyl)acetate] here?
The IC50 was 185 nM.

With `CC(N)C1CCC(C(=O)Cc2ccnc3[nH]c(-c4ccc(F)cc4)cc23)CC1` (stereo not shown) [MSK-A184] as the compound, how does the IC50 read?
The IC50 was 18.9 nM.

How did the IC50 turn out when `COc1ccc(-c2cc3c(CC(=O)C4CCC(C(C)N)CC4)ccnc3[nH]2)cc1` (stereo not shown) [MSK-A188] was run?
The IC50 was 19.4 nM.

Which IC50 does the source give for `CC(N)C1CCC(C(=O)Cc2ccnc3[nH]c(-c4ccc(C#N)cc4)cc23)CC1` (stereo not shown) [MSK-A189] here?
Its IC50 is 18.3 nM.

`CC(N)C1CCC(C(=O)Nc2ccnc3[nH]c(-c4ccc5ccccc5c4)cc23)CC1` (stereo not shown) [MSK-A190] was tested. Which IC50 did it give?
The IC50 was 23.8 nM.

With `CC(N)C1CCC(C(=O)Cc2ccnc3[nH]c(-c4cccc(F)c4)cc23)CC1` (stereo not shown) [MSK-A191] as the compound, how does the IC50 read?
The IC50 was 20.6 nM.

For `Cc1cccc(-c2cc3c(CC(=O)C4CCC(C(C)N)CC4)ccnc3[nH]2)c1` (stereo not shown) [MSK-A192], which IC50 is on record?
Its IC50 is 20.2 nM.

How did the IC50 turn out when `CC(N)C1CCC(C(=O)Cc2ccnc3[nH]c(-c4cccc(C5CC5)c4)cc23)CC1` (stereo not shown) [MSK-A193] was run?
The IC50 was 26.3 nM.

How did the IC50 turn out when `CC(N)C1CCC(C(=O)Cc2ccnc3[nH]c(-c4cccc(C(F)(F)F)c4)cc23)CC1` (stereo not shown) [MSK-A194] was run?
Its IC50 is 29.2 nM.

`CC(N)C1CCC(C(=O)Nc2ccnc3[nH]c(-c4cscn4)cc23)CC1` (stereo not shown) [MSK-A199] was tested. Which IC50 did it give?
The IC50 was 109 nM.

With `CC(N)C1CCC(C(=O)Nc2ccnc3[nH]c(-c4ncco4)cc23)CC1` (stereo not shown) [MSK-A202] as the compound, how does the IC50 read?
Its IC50 is 156 nM.
